How the values were obtained:
[1] = target: T1, ETB receptors (rat tracheal rings) (Rattus norvegicus, UniProt P21451); assay: Inhibition of sarafotoxin S6c-induced contraction of isolated rat tracheal rings; format: cell-based; conditions: contraction induced by sarafotoxin S6c, 10 min incubation, read-out: pA2 value Trachea (converted)
T1 construct: The thoracic aorta or trachea were excised, dissected and cut in 3-5 mm rings; from tissue; host or cells: tracheal rings of adult Wistar rats, epithelium removed
T1 sequence (P21451 27-442): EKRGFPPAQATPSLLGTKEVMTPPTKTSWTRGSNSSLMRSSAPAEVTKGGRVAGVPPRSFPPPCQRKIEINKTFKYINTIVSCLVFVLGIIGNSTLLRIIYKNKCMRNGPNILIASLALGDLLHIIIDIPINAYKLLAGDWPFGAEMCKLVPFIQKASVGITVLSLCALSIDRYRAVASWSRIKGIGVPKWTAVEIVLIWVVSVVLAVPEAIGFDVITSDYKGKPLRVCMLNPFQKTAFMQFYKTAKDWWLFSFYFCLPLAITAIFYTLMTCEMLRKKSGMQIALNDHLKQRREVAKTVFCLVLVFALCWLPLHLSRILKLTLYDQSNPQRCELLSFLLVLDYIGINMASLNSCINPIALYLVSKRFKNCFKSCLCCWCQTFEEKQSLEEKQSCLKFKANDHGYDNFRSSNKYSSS
Method: (§1) 2) Inhibition of Endothelin-Induced Contractions on Isolated Rat Aortic Rings (ETA Receptors) and Rat Tracheal Rings (ETB Receptors):
(§2) The functional inhibitory potency of the endothelin antagonists was assessed by their inhibition of the contraction induced by endothelin-1 on rat aortic rings (ETA receptors) and of the contraction induced by sarafotoxin S6c on rat tracheal rings (ETB receptors). Adult Wistar rats were anesthetized and exsanguinated. The thoracic aorta or trachea were excised, dissected and cut in 3-5 mm rings. The endothelium/epithelium was removed by gentle rubbing of the intimal surface. Each ring was suspended in a 10 mL isolated organ bath filled with Krebs-Henseleit solution (in mM; NaCl 115, KCl 4.7, MgSO4 1.2, KH2PO4 1.5, NaHCO3 25, CaCl2 2.5, glucose 10) kept at 37° C. and gassed with 95% O2 and 5% CO2. The rings were connected to force transducers and isometric tension was recorded (EMKA Technologies SA, Paris, France). The rings were stretched to a resting tension of 3 g (aorta) or 2 g (trachea). […] The functional inhibitory potency of the test compound was assessed by calculating the concentration ratio, i.e. the shift to the right of the EC50 induced by different concentrations of test compound. […]

[2] = target: T2, human recombinant ETB receptors (Homo sapiens, UniProt P24530); assay: Inhibition of [125I]ET-1 binding to membranes from CHO cells carrying human ETB receptors; note: 2.5% DMSO
T2 construct: expressed in transfected cells; host or cells: CHO cells (microsomal membranes)
T2 sequence (P24530 27-442): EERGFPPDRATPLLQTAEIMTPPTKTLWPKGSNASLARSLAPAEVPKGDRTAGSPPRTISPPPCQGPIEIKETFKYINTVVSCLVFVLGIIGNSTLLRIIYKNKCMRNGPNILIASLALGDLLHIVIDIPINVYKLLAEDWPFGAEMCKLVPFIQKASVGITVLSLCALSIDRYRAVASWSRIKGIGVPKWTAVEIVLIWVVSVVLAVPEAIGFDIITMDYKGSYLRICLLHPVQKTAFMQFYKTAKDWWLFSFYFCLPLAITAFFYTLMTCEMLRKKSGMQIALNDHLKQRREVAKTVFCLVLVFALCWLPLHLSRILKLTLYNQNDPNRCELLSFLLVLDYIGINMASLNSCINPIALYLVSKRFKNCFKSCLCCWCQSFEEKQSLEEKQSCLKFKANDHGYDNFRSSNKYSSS
Method: 1) Inhibition of Endothelin Binding to Membranes from CHO Cells Carrying Human ET Receptors:
For competition binding studies, membranes of CHO cells expressing human recombinant ETA or ETB receptors were used. Microsomal membranes from recombinant CHO cells were prepared and the binding assay made as previously described (Breu V., et al, FEBS Lett 1993; 334:210).
The assay is performed in 200 uL 50 mM Tris/HCl buffer, pH 7.4, including 25 mM MnCl2, 1 mM EDTA and 0.5% (w/v) BSA in polypropylene microtiter plates. […]. […] After 2 h, the membranes were filtered on filterplates containing GF/C filters (Unifilterplates from Canberra Packard S. A. Zürich, Switzerland). To each well, 50 uL of scintillation cocktail is added (MicroScint 20, Canberra Packard S. A. Zürich, Switzerland) and the filter plates counted in a microplate counter (TopCount, Canberra Packard S. A. Zürich, Switzerland).
All the test compounds were dissolved, diluted and added in DMSO. […] […].

[3] = target: T3, ETA receptors (rat aortic rings) (Rattus norvegicus, UniProt P26684); assay: Inhibition of endothelin-1-induced contraction of isolated rat aortic rings; format: cell-based; conditions: read-out: pA2 value Aorta (converted)
T3 construct: The thoracic aorta or trachea were excised, dissected and cut in 3-5 mm rings; from tissue; host or cells: thoracic aorta rings of adult Wistar rats, endothelium removed
T3 sequence (P26684 21-426): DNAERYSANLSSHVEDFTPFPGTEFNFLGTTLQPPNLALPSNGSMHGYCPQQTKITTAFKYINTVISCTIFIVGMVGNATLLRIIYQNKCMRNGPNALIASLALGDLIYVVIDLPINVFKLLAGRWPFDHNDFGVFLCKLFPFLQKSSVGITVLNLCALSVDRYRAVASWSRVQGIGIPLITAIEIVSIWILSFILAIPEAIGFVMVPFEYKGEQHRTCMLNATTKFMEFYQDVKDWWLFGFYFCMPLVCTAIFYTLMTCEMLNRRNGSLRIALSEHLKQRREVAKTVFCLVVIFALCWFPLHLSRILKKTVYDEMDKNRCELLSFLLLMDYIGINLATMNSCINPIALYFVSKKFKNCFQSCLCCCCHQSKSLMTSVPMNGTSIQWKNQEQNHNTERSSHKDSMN
Method: as §1, §2

[4] = target: T4, human recombinant ETA receptors (Homo sapiens, UniProt P25101); assay: Inhibition of [125I]ET-1 binding to membranes from CHO cells carrying human ETA receptors
T4 construct: expressed in transfected cells; host or cells: CHO cells (microsomal membranes)
T4 sequence (P25101 21-427): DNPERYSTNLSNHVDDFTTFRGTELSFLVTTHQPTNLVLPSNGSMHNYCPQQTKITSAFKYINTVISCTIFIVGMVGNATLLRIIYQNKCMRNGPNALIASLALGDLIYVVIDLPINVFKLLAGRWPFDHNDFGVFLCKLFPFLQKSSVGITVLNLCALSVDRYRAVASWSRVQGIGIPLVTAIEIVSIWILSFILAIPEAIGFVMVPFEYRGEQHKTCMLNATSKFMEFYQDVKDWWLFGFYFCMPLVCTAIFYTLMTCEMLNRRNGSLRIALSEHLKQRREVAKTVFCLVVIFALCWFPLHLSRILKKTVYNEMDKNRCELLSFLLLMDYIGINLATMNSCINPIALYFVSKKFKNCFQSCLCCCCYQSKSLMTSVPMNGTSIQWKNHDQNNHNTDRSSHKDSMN

Compound: O=S(=O)(NCCCO)Nc1ncnc(OCCOc2ncc(Br)cn2)c1-c1ccc(Br)cc1 [Example 1, 1-hydroxypropanesulfamic acid[6-(2-(5-bromopyrimid-2-yloxy)-ethoxy)-5-(4-bromophenyl)-pyrimidin-4-yl]-amide]
- Kb [1]: 3160 nM
- IC50 [2]: 322 nM
- Kb [3]: 100 nM
- IC50 [4]: 0.603 nM

Compound: O=C(O)CCNS(=O)(=O)Nc1ncnc(OCCOc2ncc(Br)cn2)c1-c1ccc(Br)cc1 [Example 2]
- Kb [1]: 794 nM
- IC50 [2]: 330 nM
- Kb [3]: 6.31 nM
- IC50 [4]: 0.656 nM
